Legend:
Experiment in all cases: Greenhouse herbicidal activity, post-emergence stem and leaf spray
Format in all cases: in vivo
[1] = test system: Zinnia elegans; conditions: for Control effect on Zinnia elegans: post-emergence, dose 4 g a.i./hm^2, visual, 0 = no control effect, 100% = weeds completely killed
Text: (§1) The test method of the herbicidal activity of the compound in the present invention is as follows:
(§2) Quantitative grass weed (Echinochloa crusgalli and Setaria viridis) and broad-leaved weed (Abutilon theophrasti and Zinnia elegans) seeds were sown in paper cups having a diameter of 7 cm and containing nutrient soil, after sowing, the seeds were covered with 1 cm of soil, the soil was pressed and watered, and then the seeds were cultivated in a greenhouse according to a conventional method. The grass weeds grew to 2-3 leaf stages, the broad-leaved weeds grew to 2-4 leaf stages, stem and leaves were sprayed. Before emergence, the soil was sprayed within 24 hours after sowing. According to the design dose of the test, spray treatment was carried out on a track-type crop sprayer (designed and produced by British Engineer Research Ltd.) (spray pressure is 1.95 kg/cm^2, spray volume is 500 L/hm^2 and track speed is 1.48 km/h). The test was repeated for three times. The test material was treated and then placed in an operation hall. The medicinal liquid was naturally dried in the shade, and then was placed in a greenhouse and managed according to the conventional method. The response of the weeds to the test compound was observed and recorded. After treatment, the control effects of the test compound on the weeds were visually inspected regularly.
(§3) The grading standards of the control effects: 0 represents no control effect and 100% represents that the weeds are completely killed or greatly controlled.

[2] = test system: Echinochloa crusgalli; conditions: for Control effect on Echinochloa crusgalli: post-emergence, visual, 0 = no control effect, 100% = weeds completely killed
Text: as §1, §2, §3

[3] = test system: Setaria viridis; conditions: for Control effect on Setaria viridis: post-emergence, visual, 0 = no control effect, 100% = weeds completely killed
Text: as §1, §2, §3

[4] = test system: Abutilon theophrasti; conditions: for Control effect on Abutilon theophrasti: post-emergence, dose 4 g a.i./hm^2, visual, 0 = no control effect, 100% = weeds completely killed
Text: as §1, §2, §3

[5] = post-emergence treatment, dose 4-8 g a.i./hm^2

Row | SMILES | Herbicidal activity on Zinnia elegans (in words) [1, 5] | Control effect on Zinnia elegans [1] [%] | Herbicidal activity on Echinochloa crusgalli (in words) [2, 5] | Control effect on Echinochloa crusgalli ([2]; dose 4 g a.i./hm^2) [%] | Control effect on Echinochloa crusgalli ([2]; dose 8 g a.i./hm^2) [%] | Herbicidal activity on Setaria viridi (in words) [3, 5] | Control effect on Setaria viridis ([3]; dose 4 g a.i./hm^2) [%] | Control effect on Setaria viridis ([3]; dose 8 g a.i./hm^2) [%] | Herbicidal activity on Abutilon theophrasti (in words) [4, 5] | Control effect on Abutilon theophrasti [4] [%]
1 | CCOC(=O)[C@]1(C)CC(c2cc(-n3c(=O)cc(C(F)(F)F)n(C)c3=O)c(F)cc2Cl)=NO1 [Compound 3] | high herbicidal activity | 100 | high herbicidal activity | 90 | 98 | high herbicidal activity | 75 | 85 | high herbicidal activity | 90
2 | CCOC(=O)C1(C)CC(c2cc(-n3c(=O)cc(C(F)(F)F)n(C)c3=O)c(F)cc2Cl)=NO1 (stereo not shown) [CN105753853 Compound 6, reference compound] |  | 90 |  | 45 | 50 |  | 25 | 55 |  | 60
